Reference: patent publication US7989165B2, “Tape stripping methods for analysis of skin disease and pathological skin state” (DermTech International, priority 2004, dated 2011)
Several values for one entry are separate records, joined by “and”; a condition that tells them apart may be missing. Equal values may be shown once. Marks after values point to notes of the source that are not given here.

Legend:
IL-1β mRNA = test: Semi-quantitative RT-PCR of IL-1β mRNA relative to β-actin in SLS-occluded skin (tape and biopsy); format: in vivo, human
Source text: Clinical protocols: The study protocols were reviewed and approved by an independent IRB (BioMed IRB, San Diego) and all subjects signed informed consent. […] The bandages were made using a clear, non-porous plastic hypoallergenic adhesive tape. […] The sites were scored by a trained technician using the scale provided below. […] Abbott Laboratories). […] An area of uninvolved skin was tape harvested and shave biopsied in an identical manner. […] The following grading scale was used: 0, no visible reaction; 1, slight, pink, patchy erythema; 2, mild confluent, pink erythema; 3, moderate erythema (definite redness) with edema; 4, strong erythema (very intense redness) with edema. […] Patches were removed, scored and tape stripped as above. In a third study, two individuals were tape stripped on uninvolved skin on the upper back at three adjacent sites as above. RNA harvested in these last two studies was used in the DNA microarray experiments described below. Isolation of RNA: […] Extraction was performed using the manufacturer's directions and included a Proteinase K digestion, sonication of tapes and “on-column” DNase I digestion. […] Extraction of biopsies was performed with the same kit according to the manufacturer's instructions. Quantitative RT-PCR: 10 μl of RNA was reverse transcribed (RT) into cDNA with the Sensiscript Reverse Transcriptase kit and random hexamers in a final volume of […] according to the manufacturer's directions. […] All RT-reactions were amplified using 2 replicates and were negative (data not shown). Amplification and detection of specific mRNA: Specific mRNAs were converted to cDNA as described above. […] Amplification and detection assays were performed using TaqMan Pre-Developed Assay Reagents (PDAR; […] GAPDH mRNA assays were done in singleplex format. Thermal cycling conditions were: prior to cycling, two minutes at 50° C., then ten minutes at 95° C.; then 40 cycles at 95° C. for 15 seconds and 60° C. for 60 seconds. […] Semi-quantitation of mRNA using the ΔΔCt method: In this Example the comparative or ΔΔCt method of calculating relative gene expression levels between two samples, was used. In the ΔΔCt method the levels of IL-1β, IL-8 and GAPDH mRNAs are assayed semi-quantitatively by normalization to β-actin mRNA to create a ratio of (mRNAx)/(β-actin) mRNA for each RNA sample. This ratio is then further normalized to a control sample (a process called “calibration”; (Applied Biosystems 2001)). When comparing the ratio of mRNAx to β-actin mRNA between two different samples, it is implicitly assumed that the level of β-actin mRNA to total RNA is constant between the two samples (i.e. it is an unchanging housekeeping gene). […] The Ct values are the experimentally determined number of PCR cycles required to achieve a threshold fluorescence (statistically significant increase in fluorescence over background) for mRNAx and β-actin mRNA (Gibson, Heid et al. 1996; Heid, Stevens et al. 1996). Calculation of fold-increase and data analysis: Key to the method used to measure mRNA is the fact that the quantity of specific mRNA directly correlates with the number of cycles needed to reach threshold fluorescence, thus the fewer the number of cycles (the lower the Ct), the more mRNA is initially present. As described above, experimental data is reported as the number of cycles (Ct) required to reach a threshold fluorescence. […] The significance of ΔCt values (Tables I and IV) was determined by applying a two-sided, paired t-test. […]

Krt-10 mRNA = test: RT-PCR of keratin-10 mRNA relative to β-actin in SLS-irritated and control skin (tape and biopsy); format: in vivo, human; parameters: key to ΔCt,Krt-10, Tape, SLS / ΔCt,Krt-10, Biopsy, SLS: ΔCt: keratin mRNA Ct normalized to β-actin Ct in same sample; conditions: for ΔCt,Krt-10, Biopsy, SLS / ΔCt,Krt-10, Tape, SLS: 1% SLS occlusive patch 24 hours, mid-back, relative to β-actin, per subject 1-10 and Average; for ΔCt,Krt-10, Biopsy, SLS / Fold Increase Krt-10/β-actin mRNA vs. normal, Biopsy, SLS: biopsy RNA; for ΔCt,Krt-10, Biopsy, SLS / ΔCt,Krt-10, Tape, SLS / Fold Increase Krt-10/β-actin mRNA vs. normal, Biopsy, SLS / Fold Increase Krt-10/β-actin mRNA vs. normal, Tape, SLS: sulfate; for ΔCt,Krt-10, Tape, SLS / Fold Increase Krt-10/β-actin mRNA vs. normal, Tape, SLS: tape-stripped RNA; for Fold Increase Krt-10/β-actin mRNA vs. normal, Biopsy, SLS / Fold Increase Krt-10/β-actin mRNA vs. normal, Tape, SLS: 1% SLS patch 24 hours vs untreated skin, per subject and Average
Source text: The samples analyzed in this study are those described in the protocol performed by Wong et al. (Wong, Tran et al. 2004). […] Patches were removed and equivalent skin sites were biopsied and tape stripped as described in the Examples above. As an additional control, normal skin was also biopsied and tape stripped. Samples were processed for total RNA and assayed for keratin-10, keratin-16, keratin-17 and β-actin mRNA. The keratin mRNAs were normalized to β-actin mRNA in each sample. The semi-quantitative RT-PCR assay has been previously described (Wong, Tran et al. 2004).

[1] = SLS-occluded skin vs uninvolved skin

CCCCCCCCCCCCOS(=O)(=O)[O-].[Na+] [SLS, sodium lauryl sulfate]
fold-change in IL-1β/β-actin mRNA ratio, Biopsy (IL-1β mRNA; SLS-occluded skin relative to uninvolved skin, biopsy samples, per subject, > = minimum estimate, sulfate): >15**^† fold and >3.3** fold and >8**^† fold and >34**^† fold and >11**^† fold and 56**^† fold and >53**^† fold and 2.2** fold and 1 fold and >28**^† fold | fold-change in IL-1β/β-actin mRNA ratio, Tape (IL-1β mRNA; SLS-occluded skin relative to uninvolved skin, tape samples, per subject, > = minimum estimate, sulfate): 18**^† fold and >0.44 fold and >8.1**^† fold and >1.9** fold and >5** fold and >1.4 fold and >7.3**^† fold | biopsy samples with significantly elevated IL-1β/β-actin mRNA ratio (IL-1β mRNA; [1]): 9 of 10 | tape-harvested samples with significant increases in IL-1β/β-actin mRNA (IL-1β mRNA; [1]): 5 of 10 | SLS-treated biopsy samples with significant increases in IL-1β/actin mRNA ratio calibrated to the water-treated site (IL-1β mRNA; of 10 biopsy samples): 7 samples | ΔCt,Krt-10, Biopsy, SLS (Krt-10 mRNA): −4.28 and −0.24 and −3.09 and −6.35 and −4 and 0.4 and −2 and −2.7 and 1.91 and −5.97 | ΔCt,Krt-10, Biopsy, SLS (Krt-10 mRNA; mean): −2.63 | ΔCt,Krt-10, Tape, SLS (Krt-10 mRNA): −2.76 and 3.68 and 8.19 and −0.3 and 0.93 and 5.1 and 1.03 and 4.17 and 3.81 and −0.81 | ΔCt,Krt-10, Tape, SLS (Krt-10 mRNA; mean): 2.30 | Fold Increase Krt-10/β-actin mRNA vs. normal, Biopsy, SLS (Krt-10 mRNA): 0.15 fold and 0.01 fold (2×) and 0.06 fold (2×) and 0.65 fold and 0.1 fold and 0.03 fold and <0.001 fold and 0.57 fold | Fold Increase Krt-10/β-actin mRNA vs. normal, Biopsy, SLS (Krt-10 mRNA; mean): 0.05 fold | Fold Increase Krt-10/β-actin mRNA vs. normal, Tape, SLS (Krt-10 mRNA): 1.55 fold and 0.03 fold and <0.001 fold and 0.01 fold (3×) and 0.31 fold and 1.22 fold | Fold Increase Krt-10/β-actin mRNA vs. normal, Tape, SLS (Krt-10 mRNA; mean): 0.06 fold | average decrease in K10 expression (Krt-10 mRNA; SLS treatment vs untreated skin, tape and biopsy virtually identical): ~20 fold
